Activity calls are given as the source filed them. The rule behind the calls is not given here.
Key:
[1] = test system: Anastrepha ludens; experiment: Effect on fecundity in 7 days old adult female of Anastrepha ludens at 30 mg/g treated with diet after 24 hr in presence of untreated adult male of Anastrepha ludens; assay type: functional, organism-based
[2] = test system: Anastrepha ludens; experiment: Reduction of fertility in 7 days old adult of Anastrepha ludens assessed as reduction of egg hatching at 30 mg/g treated with diet measured after 1 day oviposition; assay type: functional; design: scale not given: the % may be the effect or the level left
[3] = test system: Anastrepha ludens; experiment: Reduction of fertility in 7 days old adult of Anastrepha ludens assessed as reduction of egg hatching at 10 mg/g treated with diet measured after 7 days oviposition; assay type: functional; design: scale not given: the % may be the effect or the level left
[4] = test system: Anastrepha ludens; experiment: Reduction of fertility in 7 days old adult of Anastrepha ludens assessed as reduction of egg hatching at 5 mg/g treated with diet measured after 11 days oviposition; assay type: functional; design: scale not given: the % may be the effect or the level left
[5] = test system: Anastrepha ludens; experiment: Reduction of fertility in 7 days old adult of Anastrepha ludens assessed as reduction of egg hatching at 5 mg/g treated with diet measured after 9 days oviposition; assay type: functional; design: scale not given: the % may be the effect or the level left
[6] = test system: Anastrepha ludens; experiment: Reduction of fertility in 7 days old adult of Anastrepha ludens assessed as reduction of egg hatching at 5 mg/g treated with diet measured after 7 days oviposition; assay type: functional; design: scale not given: the % may be the effect or the level left
[7] = test system: Anastrepha obliqua; experiment: Reduction of fertility in 7 days old adult of Anastrepha obliqua assessed as reduction of egg hatching at 1 mg/g treated with diet measured after 9 days oviposition; assay type: functional; design: scale not given: the % may be the effect or the level left
[8] = test system: Anastrepha ludens; experiment: Reduction of fertility in 7 days old adult of Anastrepha ludens assessed as reduction of egg hatching at 1 mg/g treated with diet measured after 3 days oviposition; assay type: functional; design: scale not given: the % may be the effect or the level left
[9] = test system: Anastrepha ludens; experiment: Reduction of fertility in 7 days old adult of Anastrepha ludens assessed as reduction of egg hatching at 0.5 mg/g treated with diet measured after 1 day oviposition; assay type: functional; design: scale not given: the % may be the effect or the level left
[10] = test system: Anastrepha ludens; experiment: Reduction of fertility in 7 days old adult of Anastrepha ludens assessed as reduction of egg hatching at 0.1 mg/g treated with diet measured after 7 days oviposition; assay type: functional; design: scale not given: the % may be the effect or the level left
[11] = test system: Anastrepha serpentina; experiment: Reduction of fertility in 7 days old adult of Anastrepha serpentina assessed as reduction of egg hatching at 0.1 mg/g treated with diet measured after 7 days oviposition; assay type: functional; design: scale not given: the % may be the effect or the level left
[12] = test system: Anastrepha serpentina; experiment: Reduction of fertility in 7 days old adult of Anastrepha serpentina assessed as reduction of egg hatching at 0.1 mg/g treated with diet measured after 1 day oviposition; assay type: functional; design: scale not given: the % may be the effect or the level left
[13] = test system: Anastrepha obliqua; experiment: Reduction of fertility in 7 days old adult of Anastrepha obliqua assessed as reduction of egg hatching at 30 mg/g treated with diet measured after 11 days oviposition; assay type: functional; design: scale not given: the % may be the effect or the level left
[14] = test system: Anastrepha obliqua; experiment: Reduction of fertility in 7 days old adult of Anastrepha obliqua assessed as reduction of egg hatching at 30 mg/g treated with diet measured after 5 days oviposition; assay type: functional; design: scale not given: the % may be the effect or the level left
[15] = test system: Anastrepha obliqua; experiment: Reduction of fertility in 7 days old adult of Anastrepha obliqua assessed as reduction of egg hatching at 30 mg/g treated with diet measured after 3 days oviposition; assay type: functional; design: scale not given: the % may be the effect or the level left
[16] = test system: Anastrepha obliqua; experiment: Reduction of fertility in 7 days old adult of Anastrepha obliqua assessed as reduction of egg hatching at 1 mg/g treated with diet measured after 5 days oviposition; assay type: functional; design: scale not given: the % may be the effect or the level left
[17] = test system: Anastrepha obliqua; experiment: Reduction of fertility in 7 days old adult of Anastrepha obliqua assessed as reduction of egg hatching at 1 mg/g treated with diet measured after 1 day oviposition; assay type: functional; design: scale not given: the % may be the effect or the level left
[18] = test system: Anastrepha obliqua; experiment: Reduction of fertility in 7 days old adult of Anastrepha obliqua assessed as reduction of egg hatching at 0.5 mg/g treated with diet measured after 7 days oviposition; assay type: functional; design: scale not given: the % may be the effect or the level left
[19] = test system: Anastrepha obliqua; experiment: Reduction of fertility in 7 days old adult of Anastrepha obliqua assessed as reduction of egg hatching at 0.5 mg/g treated with diet measured after 3 days oviposition; assay type: functional; design: scale not given: the % may be the effect or the level left
[20] = test system: Anastrepha obliqua; experiment: Reduction of fertility in 7 days old adult of Anastrepha obliqua assessed as reduction of egg hatching at 0.1 mg/g treated with diet measured after 5 days oviposition; assay type: functional; design: scale not given: the % may be the effect or the level left
[21] = test system: Anastrepha ludens; experiment: Reduction of fertility in 7 days old adult of Anastrepha ludens assessed as reduction of egg hatching at 30 mg/g treated with diet measured after 7 days oviposition; assay type: functional; design: scale not given: the % may be the effect or the level left
[22] = test system: Anastrepha striata; experiment: Reduction of fertility in 7 days old adult of Anastrepha striata assessed as reduction of egg hatching at 5 mg/g treated with diet measured after 1 day oviposition; assay type: functional; design: scale not given: the % may be the effect or the level left
[23] = test system: Anastrepha striata; experiment: Reduction of fertility in 7 days old adult of Anastrepha striata assessed as reduction of egg hatching at 0.5 mg/g treated with diet measured after 7 days oviposition; assay type: functional; design: scale not given: the % may be the effect or the level left
[24] = test system: Anastrepha striata; experiment: Reduction of fertility in 7 days old adult of Anastrepha striata assessed as reduction of egg hatching at 0.5 mg/g treated with diet measured after 1 day oviposition; assay type: functional; design: scale not given: the % may be the effect or the level left
[25] = test system: Anastrepha serpentina; experiment: Reduction of fertility in 7 days old adult of Anastrepha serpentina assessed as reduction of egg hatching at 30 mg/g treated with diet measured after 1 day oviposition; assay type: functional; design: scale not given: the % may be the effect or the level left
[26] = test system: Anastrepha serpentina; experiment: Reduction of fertility in 7 days old adult of Anastrepha serpentina assessed as reduction of egg hatching at 10 mg/g treated with diet measured after 11 days oviposition; assay type: functional; design: scale not given: the % may be the effect or the level left
[27] = test system: Anastrepha serpentina; experiment: Reduction of fertility in 7 days old adult of Anastrepha serpentina assessed as reduction of egg hatching at 10 mg/g treated with diet measured after 3 days oviposition; assay type: functional; design: scale not given: the % may be the effect or the level left
[28] = test system: Anastrepha serpentina; experiment: Reduction of fertility in 7 days old adult of Anastrepha serpentina assessed as reduction of egg hatching at 5 mg/g treated with diet measured after 7 days oviposition; assay type: functional; design: scale not given: the % may be the effect or the level left
[29] = test system: Anastrepha serpentina; experiment: Reduction of fertility in 7 days old adult of Anastrepha serpentina assessed as reduction of egg hatching at 5 mg/g treated with diet measured after 1 day oviposition; assay type: functional; design: scale not given: the % may be the effect or the level left
[30] = test system: Anastrepha serpentina; experiment: Reduction of fertility in 7 days old adult of Anastrepha serpentina assessed as reduction of egg hatching at 1 mg/g treated with diet measured after 7 days oviposition; assay type: functional; design: scale not given: the % may be the effect or the level left
[31] = test system: Anastrepha serpentina; experiment: Reduction of fertility in 7 days old adult of Anastrepha serpentina assessed as reduction of egg hatching at 1 mg/g treated with diet measured after 3 days oviposition; assay type: functional; design: scale not given: the % may be the effect or the level left
[32] = test system: Anastrepha serpentina; experiment: Reduction of fertility in 7 days old adult of Anastrepha serpentina assessed as reduction of egg hatching at 0.5 mg/g treated with diet measured after 9 days oviposition; assay type: functional; design: scale not given: the % may be the effect or the level left
[33] = test system: Anastrepha serpentina; experiment: Reduction of fertility in 7 days old adult of Anastrepha serpentina assessed as reduction of egg hatching at 0.5 mg/g treated with diet measured after 7 days oviposition; assay type: functional; design: scale not given: the % may be the effect or the level left
[34] = test system: Anastrepha serpentina; experiment: Reduction of fertility in 7 days old adult of Anastrepha serpentina assessed as reduction of egg hatching at 0.5 mg/g treated with diet measured after 5 days oviposition; assay type: functional; design: scale not given: the % may be the effect or the level left
[35] = test system: Anastrepha striata; experiment: Reduction of fertility in 7 days old adult of Anastrepha striata assessed as reduction of egg hatching at 10 mg/g treated with diet measured after 5 days oviposition; assay type: functional; design: scale not given: the % may be the effect or the level left
[36] = test system: Anastrepha striata; experiment: Reduction of fertility in 7 days old adult of Anastrepha striata assessed as reduction of egg hatching at 10 mg/g treated with diet measured after 3 days oviposition; assay type: functional; design: scale not given: the % may be the effect or the level left
[37] = test system: Anastrepha striata; experiment: Reduction of fertility in 7 days old adult of Anastrepha striata assessed as reduction of egg hatching at 5 mg/g treated with diet measured after 11 days oviposition; assay type: functional; design: scale not given: the % may be the effect or the level left
[38] = test system: Anastrepha striata; experiment: Effect on fecundity in 7 days old adult male of Anastrepha striata at 30 mg/g treated with diet after 24 hr in presence of untreated adult female of Anastrepha striata; assay type: functional, organism-based
[39] = test system: Anastrepha serpentina; experiment: Effect on fecundity in 7 days old adult male of Anastrepha serpentina at 30 mg/g treated with diet after 24 hr in presence of untreated adult female of Anastrepha serpentina; assay type: functional, organism-based
[40] = test system: Anastrepha obliqua; experiment: Effect on fecundity in 7 days old adult female of Anastrepha obliqua at 30 mg/g treated with diet after 24 hr in presence of untreated adult male of Anastrepha obliqua; assay type: functional, organism-based

Structure (SMILES): O=C(NC(=O)c1c(F)cccc1F)Nc1cc(Cl)c(OC(F)(F)C(F)C(F)(F)F)cc1Cl (racemic) [LUFENURON]
- Activity [1]: inactive
- Activity [2]: 3%
- Activity [3]: 13.3%
- Activity [4]: 32.7%
- Activity [5]: 30.7%
- Activity [6]: 28%
- Activity [7]: 0%
- Activity [8]: 9.3%
- Activity [9]: 8.7%
- Activity [10]: 43.3%
- Activity [11]: 96.7%
- Activity [12]: 98.9%
- Activity [13]: 2%
- Activity [14]: 0%
- Activity [15]: 0%
- Activity [16]: 0%
- Activity [17]: 0%
- Activity [18]: 0.7%
- Activity [19]: 2.7%
- Activity [20]: 8.7%
- Activity [21]: 4%
- Activity [22]: 3.3%
- Activity [23]: 19.3%
- Activity [24]: 13.3%
- Activity [25]: 49.2%
- Activity [26]: 79.3%
- Activity [27]: 34.4%
- Activity [28]: 96.7%
- Activity [29]: 34.8%
- Activity [30]: 92.5%
- Activity [31]: 71.1%
- Activity [32]: 88%
- Activity [33]: 86.7%
- Activity [34]: 93.3%
- Activity [35]: 2%
- Activity [36]: 10.7%
- Activity [37]: 6.7%
- Activity [38]: inactive
- Activity [39]: inactive
- Activity [40]: inactive

Reference: ChEMBL document CHEMBL3045535, “Evaluation of lufenuron as a chemosterilant against fruit flies of the genus Anastrepha (Diptera: Tephritidae)” (2010)
